Reference: ChEMBL document CHEMBL4190382, “Targeting lysine specific demethylase 4A (KDM4A) tandem TUDOR domain - A fragment based approach” (Bioorg Med Chem Lett, 2018)
The source made the active and inactive calls. No cut-off for these calls is given here. Square brackets hold non-standard residues; d marks the D form. Peptide text beside a SMILES is read from it. Lys(Me3) = C[N+](C)(C)CCCC[C@H](N)C(=O)O

Assays:
[1] = molecular target: T1, Lysine-specific demethylase 4A (Homo sapiens, UniProt O75164); assay: Binding affinity to thrombin cleavable N-terminal 6His tagged and 13C-IVLM labeled human KDM4A tandem TUDOR domain (897 to 1011 residues) expressed in Escherichia coli BL21(DE3)-T1R by ITC method
T1 sequence (O75164 whole entry): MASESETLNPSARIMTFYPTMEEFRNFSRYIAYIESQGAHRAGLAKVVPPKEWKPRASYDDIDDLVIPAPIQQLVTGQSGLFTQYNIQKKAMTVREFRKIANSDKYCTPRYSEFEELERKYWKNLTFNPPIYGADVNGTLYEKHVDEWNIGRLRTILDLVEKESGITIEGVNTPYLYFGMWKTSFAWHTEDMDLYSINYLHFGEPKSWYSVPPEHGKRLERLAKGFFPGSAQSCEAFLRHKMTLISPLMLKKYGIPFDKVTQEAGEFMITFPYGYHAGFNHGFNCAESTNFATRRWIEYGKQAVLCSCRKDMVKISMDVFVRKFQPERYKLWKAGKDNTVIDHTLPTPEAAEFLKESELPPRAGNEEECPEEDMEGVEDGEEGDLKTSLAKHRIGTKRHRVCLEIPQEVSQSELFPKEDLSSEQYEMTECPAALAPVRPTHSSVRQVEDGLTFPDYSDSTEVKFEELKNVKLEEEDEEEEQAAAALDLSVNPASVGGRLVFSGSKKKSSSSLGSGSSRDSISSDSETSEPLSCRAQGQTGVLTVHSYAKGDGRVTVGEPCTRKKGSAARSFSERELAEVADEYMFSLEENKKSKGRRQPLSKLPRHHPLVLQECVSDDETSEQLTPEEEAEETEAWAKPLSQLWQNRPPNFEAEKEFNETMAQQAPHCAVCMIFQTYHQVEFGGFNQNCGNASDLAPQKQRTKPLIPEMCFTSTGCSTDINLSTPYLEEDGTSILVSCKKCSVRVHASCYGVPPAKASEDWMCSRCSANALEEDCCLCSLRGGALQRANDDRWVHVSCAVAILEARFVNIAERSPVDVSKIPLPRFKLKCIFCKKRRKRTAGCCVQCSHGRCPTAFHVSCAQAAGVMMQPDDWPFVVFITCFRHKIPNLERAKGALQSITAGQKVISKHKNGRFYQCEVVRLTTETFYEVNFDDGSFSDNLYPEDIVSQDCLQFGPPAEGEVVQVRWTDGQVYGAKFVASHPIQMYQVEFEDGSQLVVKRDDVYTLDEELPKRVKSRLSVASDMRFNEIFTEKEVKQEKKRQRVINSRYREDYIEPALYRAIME

[2] = molecular target: T1, Lysine-specific demethylase 4A; assay: Inhibition of NanoLuc-KDM4A-TUDOR domain (unknown origin) binding to Histone H3.3-HaloTag expressed in 293T cells incubated for 18 hrs by Nano-BRET based target engagement assay; assay type: cell-based
[3] = molecular target: T2, Lysine-specific demethylase 4A (Homo sapiens) (UniProt O75164); assay: (§1) Binding affinity to thrombin cleavable N-terminal 6His-tagged and 13C-IVLM labeled human KDM4A tandem TUDOR domain (897 to 1011 residues) expressed in Escherichia coli BL21(DE3)-T1R at 1 mM by 13C HSQC NMR spectroscopy
T2 sequence (whole entry): T1 sequence (O75164 whole entry)

[4] = molecular target: T1, Lysine-specific demethylase 4A; assay: as §1

CC(C)C[C@H](NC(=O)[C@@H](NC(=O)[C@H](CCCC[N+](C)(C)C)NC(=O)[C@H](CCCNC(=N)N)NC(=O)[C@H](Cc1cnc[nH]1)NC(=O)[C@H](CCCNC(=N)N)NC(=O)[C@@H](N)CCCCN)C(C)C)C(=O)N[C@@H](CCCNC(=N)N)C(=O)N[C@@H](CC(=O)O)C(=O)N[C@@H](CC(N)=O)C(=O)O (H-KRHR[Lys(Me3)]VLRDN-OH)
Kd [1]: 4.7 µM

CN(C)C[C@@H]1C2CCC(c3ccccc3)(C2)[C@@H]1O (stereo not given in full)
EC50 [2]: 1220 µM

C[C@H](N)C(=O)N[C@@H](CCCNC(=N)N)C(=O)N[C@H](C(=O)N[C@@H](CCCC[N+](C)(C)C)C(=O)N[C@@H](CCC(N)=O)C(=O)N[C@H](C(=O)N[C@@H](C)C(=O)N[C@@H](CCCNC(=N)N)C(=O)N[C@@H](CCCCN)C(=O)N[C@@H](CO)C(=O)O)[C@@H](C)O)[C@@H](C)O
Activity [3]: Active
Kd [1]: 3 µM

CN(C)CC1C2CCC(c3ccccc3)(C2)C1O (stereo not given)
Kd [4]: 80 µM
